From patent publication US20020035061A1, “COMPOSITIONS AND METHODS FOR TREATING INFECTIONS USING CATIONIC PEPTIDES ALONE OR IN COMBINATION WITH ANTIBIOTICS” (priority 1996, published 2002)
Like-named read-outs stand apart in the source and are kept apart here.

Legend:
Assay type in all cases: cell-based
[1] = tested on: E. coli; details: for Peptide MIC values: agarose dilution
[2] = tested on: E. faecium
[3] = tested on: H. influenzae; experiment: Agarose dilution assay (MIC)
[4] = tested on: P. aeruginosa; details: for Peptide MIC values: agarose dilution
[5] = tested on: S. marcescens
[6] = tested on: Candida; experiment: Agarose dilution assay (MIC) against Candida
[7] = tested on: microorganisms with acquired resistance; experiment: microbe, parasite or virus in culture; details: for Peptide MIC: combination with Mupirocin, in µg/mL
[8] = S. maltophilia 2, Piperacillin section
[9] = peptide + Piperacillin, S. maltophilia 2

In the case of ILKKWPWWPWRRK [MBI 11CN], the MIC ([1]; E. coli ECO002) is reported as 8 µg/mL, the “Peptide MIC values” ([1]; E. coli ATCC 25922) is reported as 16 µg/mL and the “Peptide MIC values” ([1]; E. coli NCTC 10418) is reported as 4 µg/mL. For the same sequence, the MIC ([2]; E. faecium EFM001) was 8 µg/mL, the “Peptide MIC values” ([2]; agarose dilution) was 8 µg/mL and the MIC ([3]; H. influenzae HIN001) was over 128 µg/mL. The MIC ([4]; P. aeruginosa PA003) was over 128 µg/mL, the “Peptide MIC values” ([4]; P. aeruginosa ATCC 27853) was over 128 µg/mL and the “Peptide MIC values” ([4]; P. aeruginosa NCTC 10662) was over 128 µg/mL. For the same sequence, the MIC ([5]; S. marcescens SBSM1) was over 128 µg/mL, the MIC ([5]; S. marcescens SMS003) was over 128 µg/mL and the “Peptide MIC values” ([5]; agarose dilution, S. marcescens SM82) was over 128 µg/mL. For the same sequence, the MIC ([6]; C. albicans CA001) was 128 µg/mL, the MIC ([6]; C. albicans CA002) was 64 µg/mL and the MIC ([6]; C. albicans CA003) was 128 µg/mL. It also gave an MIC ([6]; C. albicans CA004) of 64 µg/mL, an MIC ([6]; C. albicans CA005) of 128 µg/mL and an MIC ([6]; C. albicans CA006) of 128 µg/mL. The MIC ([6]; C. albicans CA007) was 128 µg/mL, the MIC ([6]; C. albicans CA008) was 64 µg/mL and the MIC ([6]; C. albicans CA009) was 64 µg/mL. The MIC ([6]; C. albicans CA010) was 128 µg/mL, the MIC ([6]; C. albicans CA011) was 64 µg/mL and the MIC ([6]; C. albicans CA012) was 128 µg/mL. The MIC ([6]; C. albicans CA013) was 128 µg/mL, the MIC ([6]; C. albicans CA014) was 64 µg/mL and the MIC ([6]; C. albicans CA015) was 128 µg/mL. For the same sequence, the MIC ([6]; C. albicans CA016) was 128 µg/mL, the MIC ([6]; C. albicans CA017) was 128 µg/mL and the MIC ([6]; C. albicans CA018) was 128 µg/mL. The MIC ([6]; C. albicans CA019) was 128 µg/mL, the MIC ([6]; C. albicans CA020) was 128 µg/mL and the MIC ([6]; C. albicans CA021) was 128 µg/mL. The MIC ([6]; C. albicans CA022) was 32 µg/mL, the MIC ([6]; C. albicans CA023) was 128 µg/mL and the MIC ([6]; C. albicans CA024) was 16 µg/mL. The MIC ([6]; C. glabrata CGL001) was over 128 µg/mL, the MIC ([6]; C. glabrata CGL002) was over 128 µg/mL and the MIC ([6]; C. glabrata CGL003) was over 128 µg/mL. It also gave an MIC ([6]; C. glabrata CGL004) of over 128 µg/mL, an MIC ([6]; C. glabrata CGL005) of over 128 µg/mL and an MIC ([6]; C. glabrata CGL009) of over 128 µg/mL. For the same sequence, the MIC ([6]; C. glabrata CGL010) was over 128 µg/mL, the MIC ([6]; C. krusei CKR001) was 0.5 µg/mL and the MIC ([6]; C. tropicalis CTR001) was 4 µg/mL. It also gave an MIC ([6]; C. tropicalis CTR002) of 4 µg/mL, an MIC ([6]; C. tropicalis CTR003) of 8 µg/mL and an MIC ([6]; C. tropicalis CTR004) of 4 µg/mL. The MIC ([6]; C. tropicalis CTR005) was 4 µg/mL, the MIC ([6]; C. tropicalis CTR006) was 16 µg/mL and the MIC ([6]; C. tropicalis CTR007) was 16 µg/mL. For the same sequence, the MIC ([6]; C. tropicalis CTR008) was 8 µg/mL, the MIC ([6]; C. tropicalis CTR009) was 8 µg/mL and the “Peptide MIC + Tobramycin” value ([7]; A. baumannii ABI001) was 16 µg/mL. The “Tobramycin MIC + Peptide” value ([7]; A. baumannii ABI001) was 4 µg/mL, the “Peptide MIC Alone” value ([7]; A. baumannii ABI001, Tobramycin section) was 64 µg/mL and the “Peptide MIC + Piperacillin” value ([7]; A. calcoaceticus 3) was 32 µg/mL. For the same sequence, the “Piperacillin MIC + Peptide” value ([7]; A. calcoaceticus 3) was 16 µg/mL, the “Peptide MIC Alone” value ([7]; A. calcoaceticus 3, Piperacillin section) was 64 µg/mL and the “Peptide MIC + Tobramycin” value ([7]; E. coli EC0006) was 0.25 µg/mL. The “Tobramycin MIC + Peptide” value ([7]; E. coli EC0006) was 4 µg/mL, the “Peptide MIC Alone” value ([7]; E. coli EC0006, Tobramycin section) was 8 µg/mL and the “Peptide MIC” value ([7]; E. faecium) was 8. For the same sequence, the “Peptide MIC + Piperacillin” value ([7]; P. aeruginosa 22) was 32 µg/mL, the “Piperacillin MIC + Peptide” value ([7]; P. aeruginosa 22) was 4 µg/mL and the “Peptide MIC Alone” value ([7]; P. aeruginosa 22, Piperacillin section) was 64 µg/mL. For the same sequence, the “Peptide MIC + Piperacillin” value ([7]; P. aeruginosa 23) was 4 µg/mL, the “Piperacillin MIC + Peptide” value ([7]; P. aeruginosa 23) was 64 µg/mL and the “Peptide MIC Alone” value ([7]; P. aeruginosa 23, Piperacillin section) was 128 µg/mL. For the same sequence, the “Peptide MIC + Tobramycin” value ([7]; P. aeruginosa PA032) was 64 µg/mL, the “Tobramycin MIC + Peptide” value ([7]; P. aeruginosa PA032) was 4 µg/mL and the “Peptide MIC Alone” value ([7]; P. aeruginosa PA032, Tobramycin section) was over 128 µg/mL. For the same sequence, the “Peptide MIC” value ([7]; S. aureus) was 16, the “Peptide MIC + Piperacillin” value ([7]; S. maltophilia 2) was 32 µg/mL and the “Piperacillin MIC + Peptide” value ([7]; S. maltophilia 2) was 16 µg/mL. For the same sequence, the “Peptide MIC Alone” value [7, 8] was 64 µg/mL, the “Peptide MIC + Tobramycin” value ([7]; S. maltophilia SMA029) was 64 µg/mL and the “Tobramycin MIC + Peptide” value ([7]; S. maltophilia SMA029) was 2 µg/mL. For the same sequence, the “Peptide MIC Alone” value ([7]; S. maltophilia SMA029, Tobramycin section) was over 128 µg/mL, the “Peptide MIC + Tobramycin” value ([7]; S. maltophilia SMA030) was 64 µg/mL and the “Tobramycin MIC + Peptide” value ([7]; S. maltophilia SMA030) was 2 µg/mL. The “Peptide MIC Alone” value ([7]; S. maltophilia SMA030, Tobramycin section) was over 128 µg/mL, the FIC ([7]; peptide + Piperacillin, A. calcoaceticus 3) was 1.00 and the FIC ([7]; peptide + Piperacillin, P. aeruginosa 22) was 0.52. The FIC ([7]; peptide + Piperacillin, P. aeruginosa 23) was 0.53, the FIC [7, 9] was 0.75 and the FIC ([7]; peptide + Tobramycin, A. baumannii ABI001) was 0.50. The FIC ([7]; peptide + Tobramycin, E. coli EC0006) was 0.53, the FIC ([7]; peptide + Tobramycin, P. aeruginosa PA032) was 0.50 and the FIC ([7]; peptide + Tobramycin, S. maltophilia SMA029) was 0.27. The FIC ([7]; peptide + Tobramycin, S. maltophilia SMA030) was 0.27.

ILRWPWWPWRRK [MBI 11B7CN] was tested, and the “MIC, Peptide” value ([1]; E. coli ECO005, unmodified parent peptide) was 4 µg/mL, the MIC ([1]; E. coli strain ECO002) was 8 µg/mL and the MIC ([2]; E. faecium strain EFM001) was 4 µg/mL. For the same sequence, the MIC ([3]; H. influenzae strain HIN002) was over 128 µg/mL, the “MIC, Peptide” value ([4]; P. aeruginosa PA004, unmodified parent peptide) was 128 µg/mL and the MIC ([4]; P. aeruginosa strain PA004) was 128 µg/mL. The “MIC, Peptide” value ([5]; S. marcescens SMS003, unmodified parent peptide) was over 128 µg/mL, the MIC ([5]; S. marcescens strain SBSM1) was over 128 µg/mL and the MIC ([6]; C. albicans CA001) was 64 µg/mL. It also gave an MIC ([6]; C. albicans CA002) of 32 µg/mL, an MIC ([6]; C. albicans CA003) of 64 µg/mL and an MIC ([6]; C. albicans CA004) of 32 µg/mL. For the same sequence, the MIC ([6]; C. albicans CA005) was 32 µg/mL, the MIC ([6]; C. albicans CA006) was 64 µg/mL and the MIC ([6]; C. albicans CA007) was 64 µg/mL. It also gave an MIC ([6]; C. albicans CA008) of 32 µg/mL, an MIC ([6]; C. albicans CA009) of 32 µg/mL and an MIC ([6]; C. albicans CA010) of 64 µg/mL. It also gave an MIC ([6]; C. albicans CA011) of 64 µg/mL, an MIC ([6]; C. albicans CA012) of 64 µg/mL and an MIC ([6]; C. albicans CA013) of 64 µg/mL. The MIC ([6]; C. albicans CA014) was 32 µg/mL, the MIC ([6]; C. albicans CA015) was 64 µg/mL and the MIC ([6]; C. albicans CA016) was 64 µg/mL. For the same sequence, the MIC ([6]; C. albicans CA017) was 64 µg/mL, the MIC ([6]; C. albicans CA018) was 64 µg/mL and the MIC ([6]; C. albicans CA019) was 64 µg/mL. For the same sequence, the MIC ([6]; C. albicans CA020) was 32 µg/mL, the MIC ([6]; C. albicans CA021) was 32 µg/mL and the MIC ([6]; C. albicans CA022) was 32 µg/mL. The MIC ([6]; C. albicans CA023) was 64 µg/mL, the MIC ([6]; C. albicans CA024) was 8 µg/mL and the MIC ([6]; C. glabrata CGL001) was 128 µg/mL. The MIC ([6]; C. glabrata CGL002) was 128 µg/mL, the MIC ([6]; C. glabrata CGL003) was 128 µg/mL and the MIC ([6]; C. glabrata CGL004) was 128 µg/mL. The MIC ([6]; C. glabrata CGL005) was 128 µg/mL, the MIC ([6]; C. glabrata CGL009) was 128 µg/mL and the MIC ([6]; C. glabrata CGL010) was 128 µg/mL. For the same sequence, the MIC ([6]; C. krusei CKR001) was 1 µg/mL, the MIC ([6]; C. tropicalis CTR001) was 4 µg/mL and the MIC ([6]; C. tropicalis CTR002) was 8 µg/mL. For the same sequence, the MIC ([6]; C. tropicalis CTR003) was 8 µg/mL, the MIC ([6]; C. tropicalis CTR004) was 8 µg/mL and the MIC ([6]; C. tropicalis CTR005) was 4 µg/mL. For the same sequence, the MIC ([6]; C. tropicalis CTR006) was 8 µg/mL, the MIC ([6]; C. tropicalis CTR007) was 8 µg/mL and the MIC ([6]; C. tropicalis CTR008) was 4 µg/mL. For the same sequence, the MIC ([6]; C. tropicalis CTR009) was 4 µg/mL, the “Ceftriaxone MIC + Peptide” value ([7]; A. baumannii ABI002) was 8 µg/mL and the “Peptide MIC + Ceftriaxone” value ([7]; A. baumannii ABI002) was 8 µg/mL. For the same sequence, the “Peptide MIC Alone” value ([7]; A. baumannii ABI002, Ceftriaxone section) was 32 µg/mL, the “Ceftriaxone MIC + Peptide” value ([7]; A. baumannii ABI005) was 8 µg/mL and the “Peptide MIC + Ceftriaxone” value ([7]; A. baumannii ABI005) was 1 µg/mL. For the same sequence, the “Peptide MIC Alone” value ([7]; A. baumannii ABI005, Ceftriaxone section) was 16 µg/mL, the “Peptide MIC + Piperacillin” value ([7]; H. influenzae 1) was 1 µg/mL and the “Piperacillin MIC + Peptide” value ([7]; H. influenzae 1) was 8 µg/mL. For the same sequence, the “Peptide MIC Alone” value ([7]; H. influenzae 1, Piperacillin section) was over 128 µg/mL, the “Peptide MIC + Piperacillin” value ([7]; S. maltophilia 2) was 8 µg/mL and the “Piperacillin MIC + Peptide” value ([7]; S. maltophilia 2) was 16 µg/mL. For the same sequence, the “Peptide MIC Alone” value [7, 8] was 128 µg/mL, the “Peptide MIC + Piperacillin” value ([7]; S. marcescens 1) was 4 µg/mL and the “Piperacillin MIC + Peptide” value ([7]; S. marcescens 1) was 8 µg/mL. The “Peptide MIC Alone” value ([7]; S. marcescens 1, Piperacillin section) was over 128 µg/mL, the FIC ([7]; peptide + Ceftriaxone, A. baumannii ABI002) was 0.50 and the FIC ([7]; peptide + Ceftriaxone, A. baumannii ABI005) was 0.56. For the same sequence, the FIC ([7]; peptide + Piperacillin, H. influenzae 1) was 0.13, the FIC [7, 9] was 1.00 and the FIC ([7]; peptide + Piperacillin, S. marcescens 1) was 0.27.
